target: T1, human FSH receptor (Homo sapiens, UniProt P23945); test: HTRF assay for measuring cAMP in cells (FSH antagonism); format: cell-based; conditions: hFSHR clone 16 cells (CHO cells stably transfected with the human FSH receptor); in the presence of 1e-9 mol/l hFSH; cAMP readout; read-out: IC50 (FSH antagonistic effect in the HTRF assay)
T1 construct: expressed in transfected cells; host or cells: CHO cells (hFSHR clone 16)
T1 sequence (P23945 18-695): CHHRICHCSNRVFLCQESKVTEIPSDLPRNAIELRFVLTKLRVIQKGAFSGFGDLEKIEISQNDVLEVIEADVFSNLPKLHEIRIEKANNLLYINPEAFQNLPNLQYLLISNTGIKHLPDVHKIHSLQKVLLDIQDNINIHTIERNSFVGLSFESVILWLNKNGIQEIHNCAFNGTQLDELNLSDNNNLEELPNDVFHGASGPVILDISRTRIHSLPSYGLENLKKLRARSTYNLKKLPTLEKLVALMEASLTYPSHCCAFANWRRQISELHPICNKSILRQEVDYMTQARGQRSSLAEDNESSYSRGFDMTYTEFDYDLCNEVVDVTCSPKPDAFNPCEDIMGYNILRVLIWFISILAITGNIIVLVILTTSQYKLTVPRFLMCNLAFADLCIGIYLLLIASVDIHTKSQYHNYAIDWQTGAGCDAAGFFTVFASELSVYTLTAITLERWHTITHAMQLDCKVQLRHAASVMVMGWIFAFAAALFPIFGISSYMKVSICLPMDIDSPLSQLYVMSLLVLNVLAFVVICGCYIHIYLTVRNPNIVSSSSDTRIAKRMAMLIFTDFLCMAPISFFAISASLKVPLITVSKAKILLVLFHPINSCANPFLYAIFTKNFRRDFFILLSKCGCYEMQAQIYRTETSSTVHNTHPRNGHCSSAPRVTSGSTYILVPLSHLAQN
Method: HTRF Assay for Measuring cAMP in Cells
The method is based on a competitive immunoassay between native cAMP, which has been produced by the cells, and cAMP which is labelled with cAMPD2 conjugate. The tracer binding was visualized by a monoclonal antibody, anti-cAMP labelled with cryptate [HTRF=homogeneous time-resolved fluorescence].
The specific signal is inversely proportional to the cAMP concentration of the samples employed.
The 665 nm/620 nm fluorescence ratio was evaluated.
The following material was used: 96-well plates for the tissue culture, 96-well plates with black edge and black base (e.g. Fluotrac 600 from Greiner), 96-well plates for the substance dilutions of polypropylene and cAMP Femtomolar (4000wells Kit, CIS Bio International #62AM5PEJ).
The following reagents were used: BSA (bovine serum albumin) Fraction V protease-free, IBMX (3-isobutyl-1-methylxanthine), hFSH (human follicle stimulating hormone), Triton X-100 analytical grade, potassium fluoride analytical grade, G 418 (Geneticin) and Accutase.
Buffer 1 (washing and testing buffer) contained PBS, 1 mM CaCl2, 1 mM MgCl2, 0.2% glucose; 0.1% BSA, 1 mM IBMX.
Buffer 2 (2× lysis buffer) contained 1% Triton X-100 in PBS (without CaCl2 and MgCl2).
Buffer 3 (assay buffer) contained 50 mM potassium phosphate buffer (pH 7.0); 800 mM potassium fluoride; 0.2% BSA (always added fresh).
On day 1, the cells were seeded in 96-well plates (3×10^4 cells per well hFSHR clone 16 cells (CHO cells stably transfected with the human FSH receptor in 150 μl of medium). The next day, test substance dilutions were made up. For this purpose, all the substances were diluted in ice-cold buffer 1 (with or without hFSH), and the substance dilutions were placed on ice until applied to the cells.
The cell supernatant was then aspirated off, and the cells were washed 2× with 200 μl of buffer 1. The cells were treated with 60 μl of the appropriate substance concentrations at 37° C. for 2 h. The cells were then lysed with 60 μl of buffer 2 (put onto the supernatant) (on a plate shaker at RT for 30 min).
The test conjugates (cAMP-D2 and anti-cAMP cryptate, CIS Bio) were diluted in buffer 3 in accordance with the manufacturers' information. The actual mixture for measurement was pipetted into a black 96-well plate (in each case 15 μl of the cell lysate diluted with 35 μl of buffer 1; firstly 25 μl of cAMP-D2 conjugate were pipetted and, after 10 min, 25 μl of the anti-cAMP cryptate were added). This is followed by incubation at RT for 90 minutes. The measurement was carried out in a PheraStar (BMG).
Dose-effect curve (hFSH) for the human receptor: 1e-8, 3e-9, 1e-9, 3e-10, 1e-10, 3e-11, 1e-11, 3e-12 mol/l.
The test substances were employed in suitable dilutions in the absence (test for agonism) and in the presence of 1e-9 mol/l hFSH.
The values of the well ratio were averaged and then entered directly in SigmaPlot versus the concentrations. The maximum and minimum values were determined for each plate, and half the difference is to be regarded as IC50.

Structure (SMILES)	IC50
COc1ccc(-c2ccc(OC(C)C)c(C(=O)NC(C)(CO)Cc3c[nH]c4ccccc34)c2)cc1OC (racemic) [Example 4, 4-Isopropoxy-3′,4′-dimethoxy-biphenyl-3-carboxylic acid [1-hydroxymethyl-2-(1H-indol-3-yl)-1-methyl-ethyl]-amide]	50 nM
CC(C)Oc1ccc(C#Cc2ccccc2)cc1C(=O)NC(C)(CO)Cc1c[nH]c2ccccc12 (centres unmarked) [Example 1, N-[1-Hydroxymethyl-2-(1H-indol-3-yl)-1-methyl-ethyl]-2-isopropoxy-5-phenylethynyl-benzamide]	1000 nM
CNC(=O)c1cc(F)cc(-c2ccc(OC(C)C)c(C(=O)NC(C)(CO)Cc3c[nH]c4ccccc34)c2)c1 (centres unmarked) [Example 2, 5′-Fluoro-4-isopropoxy-biphenyl-3,3′-dicarboxylic acid 3-{[2-hydroxy-1-(1H-indol-3-ylmethyl)-1-methyl-ethyl]-amide} 3′-methylamide]	1000 nM
CNC(=O)c1ccc(-c2ccc(OC(C)C)c(C(=O)NC(C)(CO)Cc3c[nH]c4ccccc34)c2)cc1Cl (centres unmarked) [Example 3, 3′-Chloro-4-isopropoxy-biphenyl-3,4′-dicarboxylic acid 3-{[2-hydroxy-1-(1H-indol-3-ylmethyl)-1-methyl-ethyl]-amide}-4′-methylamide]	100 nM
COc1ccccc1C#Cc1ccc(OC(C)C)c(C(=O)NC(C)(CO)Cc2c[nH]c3ccccc23)c1 (centres unmarked) [Example 5, N-[1-Hydroxymethyl-2-(1H-indol-3-yl)-1-methyl-ethyl]-2-isopropoxy-5-(2-methoxy-phenylethynyl)-benzamide]	200 nM
